Measured values as given in ChEMBL document CHEMBL4739717, “Methods of treating cartilage disorders through inhibition of clk and dyrk” (2020).

Key:
[1] = Effect on Wnt signaling pathway in human SW480 cells harbouring TCF/LEF luciferase reporter gene and SP5-Luc reporter gene incubated for 36 to 48 hrs by luminescence assay; assay type: cell-based
[2] = molecular target: Dual specificity tyrosine-phosphorylation-regulated kinase 1A (Homo sapiens, UniProt Q13627); assay: Inhibition of recombinant DYRK1A (unknown origin) using Ser/Thr 18 peptide as substrate incubated for 1 hr in presence of ATP by FRET assay
[3] = Induction of chondrogenesis in human MSC assessed as maximum activity at 100 nM incubated for 6 days by rhodamine B and Nile red staining based imaging analysis relative to control; assay type: functional; details: BMMSC, 144 h, time 6 day
[4] = Induction of chondrogenesis in human MSC assessed as maximum activity at 30 nM incubated for 6 days by rhodamine B and Nile red staining based imaging analysis relative to control; assay type: functional; details: BMMSC, 144 h, time 6 day
[5] = Inhibition of IL1-beta induced MMP3 expression levels in human chondrocytes assessed as MMP3 levels incubated for 2hrs followed by IL1-beta stimulation and measured after overnight incubation by LANCE assay; assay type: functional, cell-based; details: Chondrocyte
[6] = Induction of chondrogenesis in human MSC assessed as incubated for 6 days by rhodamine B and Nile red staining based imaging analysis; assay type: functional; details: bmmsc

SMILES | EC50 [1] | EC50 [2] | EC50 [5] | EC50 [6] | Emax at 0.1 µM [3] | Emax at 0.03 µM [4]
FC1(F)CCN(Cc2cncc(-c3ccc4[nH]nc(-c5cc6c(N7CCCCC7)ccnc6[nH]5)c4n3)c2)C1 | 5270 nM | 30 nM |  |  | 37.6% | 
CN1CCN(c2nccc3[nH]c(-c4n[nH]c5ccc(-c6cncc(NC(=O)c7ccccc7)c6)cc45)cc23)CC1 | 2140 nM | 16 nM |  |  | 34.6% | 
c1cc2[nH]c(-c3n[nH]c4ccc(-c5cncc(CN6CCCCC6)c5)cc34)cc2c(N2CCCCC2)n1 | 4210 nM | 32 nM |  |  | 48.1% | 
O=C(CC1CCNCC1)Nc1cncc(-c2ccc3[nH]nc(-c4cc5c(N6CCCCC6)nccc5[nH]4)c3n2)c1 | > 10000 nM | 6 nM | 1470 nM |  |  | 21.8%
O=C(Nc1cncc(-c2cnc3[nH]nc(-c4cc5c(-c6ccncc6)cncc5[nH]4)c3c2)c1)C1CCC1 | > 10000 nM | 4 nM | 17.9 nM |  |  | 43.5%
CN1CCN(c2nccc3[nH]c(-c4n[nH]c5cc(F)c(-c6cnn(C)c6)cc45)nc23)CC1 | 85.7 nM | 4 nM | 35.5 nM |  |  | 113%
Cc1nnc(-c2ccc3cnc(NC(=O)c4ccnc(N(C)C5CCN(C)CC5)c4)cc3c2)s1 |  |  | 2.7 nM |  |  | 25.7%
O=C(Nc1c[nH]nc1C(=O)Nc1cncc(-c2cccc(F)c2)c1)c1cncc(OC2CCNCC2)c1 | 1600 nM | 12 nM | 339 nM |  |  | 89.5%
Cn1ncc(-c2ccc3cnc(NC(=O)c4cccc(CN5CCCC5)c4)cc3c2)c1CN1CCCCC1 |  |  | 1190 nM |  |  | 27.6%
CN(C)Cc1cncc(-c2ccc3[nH]nc(-c4cc5c(N6CCCCC6)nccc5[nH]4)c3c2)c1 | 4710 nM | 33 nM |  | 10 nM |  | 220%
Nc1cncc(-c2ccc3[nH]nc(-c4cc5c(N6CCCCC6)ccnc5[nH]4)c3c2)c1 | 604 nM | 33 nM |  | 30 nM |  | 130%

Further lines, with some results ahead:

EC50 [1] | EC50 [2] | EC50 [5] | EC50 [6] | SMILES | Emax at 0.1 µM [3] | Emax at 0.03 µM [4]
3750 nM | 71 nM |  |  | Fc1cccc(-c2nccc3[nH]c(-c4n[nH]c5ccc(-c6cncc(CN7CCCCC7)c6)nc45)cc23)c1 | 48% | 
4 nM | 10 nM | 3000 nM | 30 nM | CC(C)C(=O)Nc1cncc(-c2ccc3[nH]nc(-c4nc5c(-c6ccccc6F)cncc5[nH]4)c3c2)c1 |  | 102%
1.8 nM | 15 nM |  |  | FC1(F)CCN(Cc2cncc(-c3ccc4[nH]nc(-c5nc6c(-c7ccsc7)cncc6[nH]5)c4c3)c2)C1 | 81.3% | 
3290 nM | 7 nM | 329 nM | 30 nM | CN1CCN(c2cncc3[nH]c(-c4n[nH]c5ccc(-c6cncc(CNCc7ccccc7)c6)cc45)cc23)CC1 |  | 101%
48 nM | 9 nM | 3000 nM | 30 nM | CN(C)Cc1cncc(-c2cnc3[nH]nc(-c4nc5c(-c6cccs6)cncc5[nH]4)c3c2)c1 |  | 146%
> 10000 nM | 36 nM |  | 100 nM | c1cncc(-c2ccc3[nH]nc(-c4nc5c(-c6cccnc6)nccc5[nH]4)c3n2)c1 |  | 70%
> 10000 nM | 70 nM |  | 30 nM | CCNCc1cncc(-c2cc3c(-c4cc5c(-c6ccccc6F)ccnc5[nH]4)n[nH]c3cn2)c1 |  | 270%
154 nM | 5 nM |  | 30 nM | CC(C)Nc1cncc(-c2cnc3[nH]nc(-c4nc5c(-c6cc(F)cc(NCCN(C)C)c6)nccc5[nH]4)c3c2)c1 |  | 82.9%
59.3 nM | 2 nM |  | 30 nM | CCNCc1cncc(-c2cc3c(-c4nc5c(-c6ccsc6)nccc5[nH]4)n[nH]c3cn2)c1 |  | 67.7%
297 nM | 18 nM |  | 30 nM | CC(C)Nc1cncc(-c2ccc3[nH]nc(-c4nc5c(-c6ccoc6)nccc5[nH]4)c3n2)c1 |  | 76.2%
